Test results from US20120029187A1, “HALOALKYLSULFONANILIDE DERIVATIVE” (Nissan Chemical Industries, Ltd., priority 2009, published 2012).

Assays:
Format in all cases: in vivo
barnyardgrass [1] = assay: Test Example 1: herbicidal effects in preemergence treatment under submerged conditions; details: dose 2.52 g/a
In short: (§1)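 Submerged conditions, 4 cm water over alluvial soil. Weeds sown and 2.5-leaf rice transplanted; compound applied preemergence to water surface, doses in g per are. Greenhouse, 25 to 30° C., three weeks, then 0–5 mortality rating.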

bulrush [2] = assay: as above; details: dose 2.52 g/a
In short: as §1

ducksalad [3] = assay: as above; details: dose 2.52 g/a
In short: as §1

transplanted rice = assay: Test Example 1: preemergence treatment under submerged conditions, effect on crop; details: dose 2.52 g/a
In short: as §1

barnyardgrass [4] = assay: Test Example 2: herbicidal effects during the vegetation period under submerged conditions; details: treatment during the vegetation period under submerged conditions; dose 2.52 g/a
In short: (§2)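 Barnyardgrass, bulrush and ducksalad were co-sown in alluvial soil flooded to 4 cm and grown in a greenhouse at 25 to 30° C. At the 1- or 2-leaf stage, water-diluted emulsifiable concentrates went onto the water surface at set doses (g/a). Herbicidal effect was scored three weeks later on a graded scale.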

bulrush [5] = assay: as above; details: treatment during the vegetation period under submerged conditions; dose 2.52 g/a
In short: as §2

ducksalad [6] = assay: as above; details: treatment during the vegetation period under submerged conditions; dose 2.52 g/a
In short: as §2

Italian ryegrass [7] = assay: Test Example 3: herbicidal effects in soil treatment
In short: (§3)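 Seeds were sown in sterilized diluvial soil and covered with about 1.5 cm of soil. Compounds, formulated as emulsifiable concentrates and diluted with water, were sprayed evenly over the soil surface at set doses in g/a. Herbicidal effect was scored on a rating scale three weeks later.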

barnyardgrass [8] = assay: as above
In short: as §3

common chickweed [9] = assay: as above
In short: as §3

common lambsquater [10] = assay: as above
In short: as §3

common ragweed [11] = assay: as above
In short: as §3

giant foxtail [12] = assay: as above
In short: as §3

large crabgrass [13] = assay: as above
In short: as §3

posumbu knotweed [14] = assay: as above
In short: as §3

redroot pigweed [15] = assay: as above
In short: as §3

velvetleaf [16] = assay: as above
In short: as §3

water foxtail [17] = assay: as above
In short: as §3

wild oat [18] = assay: as above
In short: as §3

Italian ryegrass [19] = assay: Test Example 4: herbicidal effect in foliage treatment
In short: (§4)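 Post-emergence foliar spray of water-diluted emulsifiable concentrate at predetermined doses (g per are), applied to plants 14 days after sowing in sterile diluvial soil (greenhouse, 25 to 30° C). Visual scale rating of effect taken 3 weeks later.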

barnyardgrass [20] = assay: as above
In short: as §4

beadstraw = assay: as above
In short: as §4

common chickweed [21] = assay: as above
In short: as §4

common lambsquater [22] = assay: as above
In short: as §4

common ragweed [23] = assay: as above
In short: as §4

giant foxtail [24] = assay: as above
In short: as §4

large crabgrass [25] = assay: as above
In short: as §4

posumbu knotweed [26] = assay: as above
In short: as §4

redroot pigweed [27] = assay: as above
In short: as §4

velvetleaf [28] = assay: as above
In short: as §4

water foxtail [29] = assay: as above
In short: as §4

wild oat [30] = assay: as above
In short: as §4

[31] = dose 6.3 g/a, three weeks after application
[32] = dose 3.2 g/a, three weeks after the application

CCOC(=O)N(c1ccccc1CN1CCS(=O)(=O)CC1=O)S(=O)(=O)C(F)(F)F [Compound I-19, 4-[2-(N-ethoxycarbonyl-N-trifluoromethanesulfonyl)aminobenzyl]-1,4-thiazinan-1,1-dioxide-3-one]
A: barnyardgrass, herbicidal effect (evaluation scale 0-5) (barnyardgrass [1]): 5 (mortality of 90% or above (nearly complete death)) | B: bulrush, herbicidal effect (evaluation scale 0-5) (bulrush [2]): 5 (mortality of 90% or above (nearly complete death)) | C: ducksalad, herbicidal effect (evaluation scale 0-5) (ducksalad [3]): 5 (mortality of 90% or above (nearly complete death)) | a: transplanted rice, effect on crop (evaluation scale 0-5) (transplanted rice): 0 (mortality of less than 5% (almost ineffective)) | A: barnyardgrass, herbicidal effect (evaluation scale 0-5) (barnyardgrass [4]): 3 (mortality of at least 40% and less than 70%) | B: bulrush, herbicidal effect (evaluation scale 0-5) (bulrush [5]): 5 (mortality of 90% or above (nearly complete death)) | C: ducksalad, herbicidal effect (evaluation scale 0-5) (ducksalad [6]): 4 (mortality of at least 70% and less than 90%) | H: Italian ryegrass, herbicidal effect (evaluation scale 0-5) (Italian ryegrass [7]; dose 6.3 g/a): 2 (mortality of at least 20% and less than 40%) | A: barnyardgrass, herbicidal effect (evaluation scale 0-5) (barnyardgrass [8]; dose 6.3 g/a): 4 (mortality of at least 70% and less than 90%) | N: common chickweed, herbicidal effect (evaluation scale 0-5) (common chickweed [9]; dose 6.3 g/a): 5 (mortality of 90% or above (nearly complete death)) | L: common lambsquater, herbicidal effect (evaluation scale 0-5) (common lambsquater [10]; dose 6.3 g/a): 5 (mortality of 90% or above (nearly complete death)) | J: common ragweed, herbicidal effect (evaluation scale 0-5) (common ragweed [11]; dose 6.3 g/a): 4 (mortality of at least 70% and less than 90%) | E: giant foxtail, herbicidal effect (evaluation scale 0-5) (giant foxtail [12]; dose 6.3 g/a): 4 (mortality of at least 70% and less than 90%) | D: large crabgrass, herbicidal effect (evaluation scale 0-5) (large crabgrass [13]; dose 6.3 g/a): 4 (mortality of at least 70% and less than 90%) | M: posumbu knotweed, herbicidal effect (evaluation scale 0-5) (posumbu knotweed [14]; dose 6.3 g/a): 4 (mortality of at least 70% and less than 90%) | K: redroot pigweed, herbicidal effect (evaluation scale 0-5) (redroot pigweed [15]; dose 6.3 g/a): 4 (mortality of at least 70% and less than 90%) | I: velvetleaf, herbicidal effect (evaluation scale 0-5) (velvetleaf [16]; dose 6.3 g/a): 2 (mortality of at least 20% and less than 40%) | G: water foxtail, herbicidal effect (evaluation scale 0-5) (water foxtail [17]; dose 6.3 g/a): 5 (mortality of 90% or above (nearly complete death)) | F: wild oat, herbicidal effect (evaluation scale 0-5) (wild oat [18]; dose 6.3 g/a): 0 (mortality of less than 5% (almost ineffective)) | H: Italian ryegrass, herbicidal effect (Italian ryegrass [19]; [31]): 3 (mortality of at least 40% and less than 70%) | A: barnyardgrass, herbicidal effect (barnyardgrass [20]; [31]): 4 (mortality of at least 70% and less than 90%) | O: beadstraw, herbicidal effect (beadstraw; [31]): 4 (mortality of at least 70% and less than 90%) | N: common chickweed, herbicidal effect (common chickweed [21]; [31]): 4 (mortality of at least 70% and less than 90%) | L: common lambsquater, herbicidal effect (common lambsquater [22]; [31]): 4 (mortality of at least 70% and less than 90%) | J: common ragweed, herbicidal effect (common ragweed [23]; [31]): 4 (mortality of at least 70% and less than 90%) | E: giant foxtail, herbicidal effect (giant foxtail [24]; [31]): 4 (mortality of at least 70% and less than 90%) | D: large crabgrass, herbicidal effect (large crabgrass [25]; [31]): 4 (mortality of at least 70% and less than 90%) | M: posumbu knotweed, herbicidal effect (posumbu knotweed [26]; [31]): 3 (mortality of at least 40% and less than 70%) | K: redroot pigweed, herbicidal effect (redroot pigweed [27]; [31]): 4 (mortality of at least 70% and less than 90%) | I: velvetleaf, herbicidal effect (velvetleaf [28]; [31]): 3 (mortality of at least 40% and less than 70%) | G: water foxtail, herbicidal effect (water foxtail [29]; [31]): 5 (mortality of 90% or above (nearly complete death)) | F: wild oat, herbicidal effect (wild oat [30]; [31]): 0 (mortality of less than 5% (almost ineffective))

CCN1COCN(Cc2ccccc2N(C(=O)OCC(C)C)S(=O)(=O)C(F)(F)F)C1=O [IV-8]
A: barnyardgrass, herbicidal effect (evaluation scale 0-5) (barnyardgrass [1]): 5 (mortality of 90% or above (nearly complete death)) | B: bulrush, herbicidal effect (evaluation scale 0-5) (bulrush [2]): 5 (mortality of 90% or above (nearly complete death)) | C: ducksalad, herbicidal effect (evaluation scale 0-5) (ducksalad [3]): 4 (mortality of at least 70% and less than 90%) | a: transplanted rice, effect on crop (evaluation scale 0-5) (transplanted rice): 0 (mortality of less than 5% (almost ineffective)) | A: barnyardgrass, herbicidal effect (evaluation scale 0-5) (barnyardgrass [4]): 5 (mortality of 90% or above (nearly complete death)) | B: bulrush, herbicidal effect (evaluation scale 0-5) (bulrush [5]): 5 (mortality of 90% or above (nearly complete death)) | C: ducksalad, herbicidal effect (evaluation scale 0-5) (ducksalad [6]): 4 (mortality of at least 70% and less than 90%) | herbicidal effect, H: Italian ryegrass (Italian ryegrass [7]; dose 3.2 g/a): 0 (mortality of less than 5% (almost ineffective)) | herbicidal effect, A: barnyardgrass (barnyardgrass [8]; dose 3.2 g/a): 4 (mortality of at least 70% and less than 90%) | herbicidal effect, N: common chickweed (common chickweed [9]; dose 3.2 g/a): 0 (mortality of less than 5% (almost ineffective)) | herbicidal effect, L: common lambsquater (common lambsquater [10]; dose 3.2 g/a): 0 (mortality of less than 5% (almost ineffective)) | herbicidal effect, J: common ragweed (common ragweed [11]; dose 3.2 g/a): 0 (mortality of less than 5% (almost ineffective)) | herbicidal effect, E: giant foxtail (giant foxtail [12]; dose 3.2 g/a): 1 (mortality of at least 5% and less than 20%) | herbicidal effect, D: large crabgrass (large crabgrass [13]; dose 3.2 g/a): 1 (mortality of at least 5% and less than 20%) | herbicidal effect, M: posumbu knotweed (posumbu knotweed [14]; dose 3.2 g/a): 0 (mortality of less than 5% (almost ineffective)) | herbicidal effect, K: redroot pigweed (redroot pigweed [15]; dose 3.2 g/a): 0 (mortality of less than 5% (almost ineffective)) | herbicidal effect, I: velvetleaf (velvetleaf [16]; dose 3.2 g/a): 0 (mortality of less than 5% (almost ineffective)) | herbicidal effect, G: water foxtail (water foxtail [17]; dose 3.2 g/a): 5 (mortality of 90% or above (nearly complete death)) | herbicidal effect, F: wild oat (wild oat [18]; dose 3.2 g/a): 0 (mortality of less than 5% (almost ineffective)) | H: Italian ryegrass, herbicidal effect (Italian ryegrass [19]; [32]): 0 (mortality of less than 5% (almost ineffective)) | A: barnyardgrass, herbicidal effect (barnyardgrass [20]; [32]): 5 (mortality of 90% or above (nearly complete death)) | O: beadstraw, herbicidal effect (beadstraw; [32]): 3 (mortality of at least 40% and less than 70%) | N: common chickweed, herbicidal effect (common chickweed [21]; [32]): 3 (mortality of at least 40% and less than 70%) | L: common lambsquater, herbicidal effect (common lambsquater [22]; [32]): 0 (mortality of less than 5% (almost ineffective)) | J: common ragweed, herbicidal effect (common ragweed [23]; [32]): 3 (mortality of at least 40% and less than 70%) | E: giant foxtail, herbicidal effect (giant foxtail [24]; [32]): 4 (mortality of at least 70% and less than 90%) | D: large crabgrass, herbicidal effect (large crabgrass [25]; [32]): 4 (mortality of at least 70% and less than 90%) | M: posumbu knotweed, herbicidal effect (posumbu knotweed [26]; [32]): 0 (mortality of less than 5% (almost ineffective)) | K: redroot pigweed, herbicidal effect (redroot pigweed [27]; [32]): 0 (mortality of less than 5% (almost ineffective)) | I: velvetleaf, herbicidal effect (velvetleaf [28]; [32]): 3 (mortality of at least 40% and less than 70%) | G: water foxtail, herbicidal effect (water foxtail [29]; [32]): 5 (mortality of 90% or above (nearly complete death)) | F: wild oat, herbicidal effect (wild oat [30]; [32]): 0 (mortality of less than 5% (almost ineffective))
